Data taken from US20240150321A1, “PYRAZOLYLSULFONAMIDE COMPOUNDS AND THEIR USE IN THERAPY” (HOTSPOT THERAPEUTICS, INC., priority 2022, published 2024).

What was measured:
Avi-tagged FL MALT-1 = Avi-tagged FL MALT-1 (Homo sapiens (Human), UniProt Q9UDY8); assay: MALT-1 Fluorogenic Peptide Cleavage Assay (MALT1 inhibition assay); assay type: biochemical; settings: Ac-LRSR-AMC peptide substrate, 30 min pre-incubation, 90 min reaction at room temperature
Protocol: Inhibition of MALT1 activity by the presence of small molecules was evaluated using MALT-1 Fluorogenic Peptide Cleavage Assay. The assay utilizes a quenched AMC-labelled peptide that contains the MALT-1 recognition sequence and cleavage site (LRSR). MALT-1 mediated cleavage of the peptide relieves the quenching and leads to an increase in fluorescence at excitation (342 nm) and emission (441 nm).
The following reagents were obtained commercially and used to prepare standard reagent formulations as further described below: N-2-hydroxyethylpiperazine-N-2-ethane sulfonic acid (HEPES) (1 M, pH 7.5, stored at 4° C.), sodium citrate (stored at RT), tris(2-carboxyethyl) phosphine hydrochloride (T-CEP) (500 mM, stored at −20° C.), ethylenediaminetetraacetic acid (EDTA) (500 mM, stored at RT), dimethylsulfoxide (DMSO, stored at RT), 3-[(3-cholamido-propyl)dimethylammonio]-1-propane sulphate (CHAPS) (stored at RT), dimethylsulfoxide (DMSO), DMSO (Fisher Scientific, stored at RT), Avi-tagged FL MALT-1 (Pharmaron, stored at −70° C.), Ac-LRSR-AMC Peptide (SM Biochemicals, stored at −20° C.)., and ultrapure water (MILLLI-Q©).
The standard reagent formulations used in this assay were prepared and stored as follows. A 1.1 M solution of sodium citrate (161.3 g, 500 mL) was prepared and stored at room temperature. A 10% (w/v) CHAPS solution (2.0 g, 20 mL) was prepared and stored at 4° C. A 500 mM HEPES solution having pH of 6.89 was prepared from 200 mL of a 1 M HEPES solution having a pH of 7.5 using concentrated hydrochloric acid and brought to a final volume of 400 mL with MILLI-Q© H2O. The substrate, 10 mM Ac-LRSR-AMC Peptide, was prepared (10 mg, 1.370 mL DMSO) and stored at −20° C.
Compounds were plated to provide a 2% DMSO final concentration using a ProxiPlate-384 Plus F Black 384-shallow well microplate. The assay-ready plates were equilibrated to room temperature. A reaction buffer (30 mL total volume) was prepared by combining HEPES (pH 6.89, 25 mM, 1.5 mL), sodium citrate (660 mM, 18.0 mL), T-CEP (1 mM, 0.06 mL), EDTA ([…], 0.06 mL), CHAPS (0.05%, 0.15 mL), DMSO (2%, 0.6 mL), and MILLI-Q© H2O (10.23 mL; 9.63 mL when backfilled to 2% DMSO) followed by thorough mixing. DMSO was added only when compound plates had not been DMSO-backfilled to 2%.
MALT-1 was thawed and kept on ice. Peptide substrate was thawed on the bench under ambient conditions. A MALT-1 enzyme working stock was prepared from Avi-tagged FL MALT-1 (40 nM in a prepared reagent volume of 16.5 μL) and the reaction buffer (13.0 mL). MALT1 working stock (5 μL) was added to each well of the microplate. MALT-1 was pre-incubated with compounds for 30 minutes at room temperature.
Two substrate working stocks (Km and 10×Km) were prepared. The 1×Km substrate was prepared from Ac-LRSR-AMC Peptide (50 μM in a prepared reagent volume of 35.0 μL) and the reaction buffer (6.965 mL). The 10×Km substrate was prepared from Ac-LRSR-AMC Peptide (280 μM in a prepared reagent volume of 196.0 μL) and the reaction buffer (6.804 mL). The reaction was initiated by the addition of substrate working stock (5 μL, 50 μM) to Km plates and the addition of substrate working stock (5 μL 280 μM) to 10×Km plates. The plates were covered and incubated on the bench at room temperature for 90 minutes.
Fluorescence intensity was determined using a CLARIOstar microplate reader (BMG LABTECH) using the optimised AMC mode. Before taking readings, a 70% gain was applied on the neutral control well. Compound data were normalised to % Inhibition and used to plot sigmoidal concentration response curves to yield various parameters including IC50.

[1] = test system: NF-kB reporter in Jurkat cells; assay: NF-kB reporter assay in Jurkat cells stimulated with aCD3/aCD28/PMA; assay type: cell-based; settings: Homo sapiens; Jurkat cells, 1 hr compound pre-incubation, aCD3/aCD28/PMA stimulation 4 hr, One-Glo readout; read-out: NF-kB Reporter Assay IC50
Protocol: Jurkat cells were maintained in complete RPMI 1640 media supplemented with 10% FBS. Prior to the assay, 120 nL of the serial diluted compound was added in each well of 384-well flat bottom white plate (Corning #3570) by using liquid handler Echo550. Jurkat cells were harvested by centrifugation at 120 g for 10 min and resuspended in fresh RPMI 1640 media without serum. […] (25,000 cells) were seeded in each well of 384-well plate containing compound. After 1 hr incubation at 37° C. in a 5% CO2 incubator, […] of diluted aCD3/aCD28/PMA (final concentration at […] and […], respectively) in RPMI 1640 without serum were added to each well. After incubation at 37° C. in 5% CO2 for 4 hr, […] of One-Glo reagent (Promega #E6120) was added into each well. The plate was left at room temperature for 5 min and the signal was measured on EnVision (PerkinElmer).
Compounds in which an IC50 was not measured are designated as “N/A”.

Chain of Avi-tagged FL MALT-1 (Q9UDY8 whole entry): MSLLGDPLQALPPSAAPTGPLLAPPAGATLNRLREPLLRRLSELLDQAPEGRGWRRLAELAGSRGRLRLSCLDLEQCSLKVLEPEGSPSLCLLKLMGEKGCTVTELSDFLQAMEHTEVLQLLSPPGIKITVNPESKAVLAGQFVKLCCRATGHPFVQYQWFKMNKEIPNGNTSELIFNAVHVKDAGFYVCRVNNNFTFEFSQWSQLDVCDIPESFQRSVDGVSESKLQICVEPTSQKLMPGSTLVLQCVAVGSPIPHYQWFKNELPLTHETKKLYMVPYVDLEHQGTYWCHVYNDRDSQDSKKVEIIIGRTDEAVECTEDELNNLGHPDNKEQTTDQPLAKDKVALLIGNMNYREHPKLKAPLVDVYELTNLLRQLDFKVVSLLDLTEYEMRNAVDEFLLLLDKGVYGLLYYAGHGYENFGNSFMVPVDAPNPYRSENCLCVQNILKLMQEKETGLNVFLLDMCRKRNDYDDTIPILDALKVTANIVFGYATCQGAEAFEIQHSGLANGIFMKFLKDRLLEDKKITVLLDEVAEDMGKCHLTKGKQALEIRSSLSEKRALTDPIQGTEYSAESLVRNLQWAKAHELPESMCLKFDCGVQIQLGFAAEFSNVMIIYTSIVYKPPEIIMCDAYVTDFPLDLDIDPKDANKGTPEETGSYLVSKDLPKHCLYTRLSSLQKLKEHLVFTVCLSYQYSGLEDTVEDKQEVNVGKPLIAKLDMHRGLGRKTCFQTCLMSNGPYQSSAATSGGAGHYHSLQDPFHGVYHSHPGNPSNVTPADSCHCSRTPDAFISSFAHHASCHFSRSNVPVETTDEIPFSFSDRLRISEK

Row | IC50 (Avi-tagged FL MALT-1) [nM] | IC50 [1] [nM] | Compound
1 | ≤ 400 | < 400 | CCc1ccc2cnn(C)c2c1NS(=O)(=O)c1cnn(-c2cc(C(F)(F)F)ccn2)c1 [Compound I-14, N-(6-Ethyl-1-Methyl-1H-Indazol-7-yl)-1-(4-(Trifluoromethyl) Pyridin-2-yl)-1H-Pyrazole-4-Sulfonamide]
2 | 400 to 1000 | < 400 | Cn1ncc2cccc(NS(=O)(=O)c3cnn(-c4cc(C(F)(F)F)ccn4)c3)c21 [Compound I-15, N-(1-Methyl-1H-Indazol-7-yl)-1-(4-(Trifluoromethyl)Pyridin-2-yl)-1H-Pyrazole-4-Sulfonamide]
3 | > 2500 | > 2500 | Cn1ncc2cccc(NS(=O)(=O)c3cnn(-c4ccnc(C(F)(F)F)c4)c3)c21 [Compound I-16, N-(1-Methyl-1H-Indazol-7-yl)-1-(2-(Trifluoromethyl)Pyridin-4-yl)-1H-Pyrazole-4-Sulfonamidemide]
4 | ≤ 400 | 400 to 1000 | Cn1ncc2ccc(C3CC3)c(NS(=O)(=O)c3cnn(-c4cncc(C(F)(F)F)c4)c3)c21 [Compound I-18]
5 | ≤ 400 | < 400 | CCc1ccc2cnn(C)c2c1NS(=O)(=O)c1cnn(-c2cc(C(F)(F)F)ncn2)c1 [Compound I-19, N-(6-Ethyl-1-Methyl-1H-Indazol-7-yl)-1-(6-(Trifluoromethyl) Pyrimidin-4-yl)-1H-Pyrazole-4-Sulfonamide]
6 | 1000 to 2500 | 1000 to 2500 | Cn1ncc2ccc(C3CC3)c(NS(=O)(=O)c3cnn(-c4ccc(C(F)(F)F)cn4)c3)c21 [Compound I-20, N-(6-Cyclopropyl-1-Methyl-1H-Indazol-7-yl)-1-(5-(Trifluoromethyl)Pyridin-2-yl)-1H-Pyrazole-4-Sulfonamide]
7 | ≤ 400 | < 400 | Cn1ncc2ccc(C3CC3)c(NS(=O)(=O)c3cnn(-c4ccnc(C(F)(F)F)c4)c3)c21 [Compound I-21, N-(6-cyclopropyl-1-Methyl-1H-Indazol-7-yl)-1-(2-(Trifluoromethyl)Pyridin-4-yl)-1H-Pyrazole-4-Sulfonamide]
8 | ≤ 400 | < 400 | COc1ccc2cnn(C)c2c1NS(=O)(=O)c1cnn(-c2ccc(C(F)(F)F)cn2)c1 [Compound I-22, N-(6-Methoxy-1-Methyl-1H-Indazol-7-yl)-1-(5-(Trifluoromethyl)Pyridin-2-yl)-1H-Pyrazole-4-Sulfonamide]
9 | ≤ 400 | < 400 | COc1ccc2cnn(C)c2c1NS(=O)(=O)c1cnn(-c2cncc(C(F)(F)F)c2)c1 [Compound I-23, N-(6-Methoxy-1-Methyl-1H-Indazol-7-yl)-1-(5-(Trifluoromethyl)Pyridin-3-yl)-1H-Pyrazole-4-Sulfonamide]
10 | 400 to 1000 | 400 to 1000 | COc1ccc2cnn(C)c2c1NS(=O)(=O)c1cnn(-c2cc(C(F)(F)F)ncn2)c1 [Compound I-24, N-(6-Methoxy-1-Methyl-1H-Indazol-7-yl)-1-(6-(Trifluoromethyl)Pyrimidin-4-yl)-1H-Pyrazole-4-Sulfonamid]
11 | ≤ 400 | < 400 | COc1ccc2cnn(C)c2c1N(C)S(=O)(=O)c1cnn(-c2ccnc(C(F)(F)F)c2)c1 [Compound I-25, N-(6-Methoxy-1-Methyl-1H-Indazol-7-yl)-N-methyl-1-(2-(Trifluoromethyl)Pyridin-4-yl)-1H-Pyrazole-4-Sulfonamide]
12 | ≤ 400 | < 400 | CCN(c1c(OC)ccc2cnn(C)c12)S(=O)(=O)c1cnn(-c2ccnc(C(F)(F)F)c2)c1 [Compound I-26, N-(6-Methoxy-1-Methyl-1H-Indazol-7-yl)-N-Ethyl-1-(2-(Trifluoromethyl)Pyridin-4-yl)-1H-Pyrazole-4-Sulfonamide]
13 | 400 to 1000 | > 2500 | CCc1ccc2cnn(C)c2c1NS(=O)(=O)c1cn(-c2ccnc(C(F)(F)F)c2)nn1 [Compound I-27, N-(6-Ethyl-1-Methyl-1H-Indazol-7-yl)-1-(2-(Trifluoromethyl) Pyridin-4-yl)-1H-1,2,3-Triazole-4-Sulfonamide]
14 | ≤ 400 | 400 to 1000 | CCc1ccc2cnn(C)c2c1NS(=O)(=O)c1cnn(-c2ccnc(C(F)(F)F)c2)n1 [Compound I-28, N-(6-Ethyl-1-Methyl-1H-Indazol-7-yl)-2-(2-(Trifluoromethyl) Pyridin-4-yl)-2H-1,2,3-Triazole-4-Sulfonamide]
15 | ≤ 400 | 400 to 1000 | CCc1ccc2cnn(C)c2c1NS(=O)(=O)c1cn(-c2ccnc(C(F)(F)F)c2)nc1C [Compound I-29, N-(6-Ethyl-1-Methyl-1H-Indazol-7-yl)-3-Methyl-1-(2-(Trifluoromethyl)Pyridin-4-yl)-1H-Pyrazole-4-Sulfonamide]
16 | 400 to 1000 | 1000 to 2500 | CCc1ccc2cnn(C)c2c1NS(=O)(=O)c1cnn(-c2ccnc(C(F)(F)F)c2)c1C [Compound I-30, N-(6-Ethyl-1-Methyl-1H-Indazol-7-yl)-5-Methyl-1-(2-(Trifluoromethyl)Pyridin-4-yl)-1H-Pyrazole-4-Sulfonamide]
17 | ≤ 400 | 400 to 1000 | CCc1ccc2cnn(C)c2c1NS(=O)(=O)c1cnn(-c2ccnc(C)c2)c1 [Compound I-31, N-(6-Ethyl-1-Methyl-1H-Indazol-7-yl)-1-(2-Methylpyridin-4-yl)-1H-Pyrazole-4-Sulfonamide]
18 | ≤ 400 | 400 to 1000 | CCc1ccc2cnn(C)c2c1NS(=O)(=O)c1cnn(-c2cc(C)nc(C)c2)c1 [Compound I-32, 1-(2,6-Dimethylpyridin-4-yl)-N-(6-ethyl-1-Methyl-1H-Indazol-7-yl)-1H-Pyrazole-4-Sulfonamide]
19 | ≤ 400 | < 400 | CCc1ccc2cnn(C)c2c1NS(=O)(=O)c1cnn(-c2ccnc(C3CC3)c2)c1 [Compound I-33, 1-(2-Cyclopropylpyridin-4-yl)-N-(6-ethyl-1-Methyl-1H-Indazol-7-yl)-1H-Pyrazole-4-Sulfonamide]
20 | ≤ 400 | < 400 | CCc1ccc2cnn(C)c2c1NS(=O)(=O)c1cnn(-c2cc(C)ccn2)c1 [Compound I-34, N-(6-Ethyl-1-Methyl-1H-Indazol-7-yl)-1-(4-Methylpyridin-2-yl)-1H-Pyrazole-4-Sulfonamide]
21 | ≤ 400 | < 400 | COc1ccc2cnn(C)c2c1NS(=O)(=O)c1cnn(-c2cc(C)ccn2)c1 [Compound I-35, N-(6-Methoxy-1-Methyl-1H-Indazol-7-yl)-1-(4-Methylpyridin-2-yl)-1H-Pyrazole-4-Sulfonamide]
